From patent publication US12144850B2, “Methods and compositions for car T cell therapy” (PURDUE RESEARCH FOUNDATION, priority 2016, dated 2024)

Legend:
KB (FR+) cells = test: Cytotoxicity assay of CAR T cells in vitro (LDH release), KB; format: cell-based; conditions: KB (FR+) model, 100 nM conjugate; FIG. 3D
Procedure: (§1) In order to test cytotoxicity of CAR T cells with desired FITC-ligands, a standard lactate dehydrogenase (LDH) release assay was performed using a Pierce™ LDH cytotoxicity assay kit from ThermoFisher Scientific. To prepare samples for the LDH assay, cancer cells were seeded at a density of 10^4 cells/100 μL of media in each well of a 96 well plate and grown overnight. CAR T cells were prepared the next day at various numbers to have different effector (CAR T cell):target cell (cancer cell) ratios (e.g. E:T=20:1, 10:1, 5:1 and 1:1). FITC-ligands at various concentrations were introduced into each well and co-cultured for 6-24 hours. After co-incubation, the plate containing CAR T cells and cancer cells was centrifuged at 350×g at room temperature for 10 min to remove cell debris or remaining cells. 50 μL of the supernatants of each sample were then transferred into a new 96 well plate. 50 μL of the prepared LDH reaction mixture was added to the transferred 50 μL of each sample and incubated at room temperature for 30 min. 50 μL of stop solution was added and the absorbance of each sample was measured at 490 nm and 680 nm. The percent of cytotoxicity was calculated for each sample by using the equation below: % Cytotoxicity=(Experimental value−effector cells spontaneous−target cells spontaneous)/(Target cell maximum control−target cell spontaneous control)×100

LNCaP (PSMA+) cells = test: Cytotoxicity assay of CAR T cells in vitro (LDH release), LNCaP; format: cell-based; conditions: LNCaP (PSMA+) model, E:T 10:1, 100 nM conjugate; FIG. 3B
Procedure: as §1

HEK293 (NK1R+) cells [1] = test: Cytotoxicity assay of CAR T cells in vitro (LDH release), HEK293; format: cell-based; conditions: HEK293 (NK1R+) model, E:T 10:1, 100 nM conjugate; FIG. 3C
Procedure: as §1

HEK293 (NK1R+) cells [2] = test: Anti-tumor efficacy of CAR T cells in vivo, HEK293 (NK1R+) xenograft; design: species or system mice
Procedure: (§2) Immunodeficient NSG mice (Jackson Laboratory) were used to identify the efficacy of CAR T cell anti-tumor activity in vivo. Each tumor-specific antigen expressing cancer cell line was subcutaneously injected into the shoulder of NSG mice to establish solid tumor xenografts. When tumor volume of around 50-100 mm^3 was reached, CAR T cells were introduced into mice bearing tumors and desired FITC-ligands were also introduced (i.v.) every other day. Control mice were administered PBS instead of FITC-ligands. Tumor volume and cytokine levels in the blood (IL2, IL6, IL10, IFNγ, and TNFα) were measured. General toxicity of the therapy was monitored by measuring weight loss. At the end of each treatment, mouse blood was collected to test for anemia, number of white blood cells and CAR T cell proliferation. Mouse organs were also evaluated.

MDA-MB-231 (FR+) cells = test: Anti-tumor efficacy of CAR T cells in vivo, MDA-MB-231 (FR+) xenograft; design: species or system mice; conditions: during treatment, FIG. 7B
Procedure: as §2

MDA-MB-231(FR+) = test: Two tumors on separate flanks of the same mouse, MDA-MB-231 tumor; format: in vivo, mice
Description: (§3) In order to study whether same anti-FITC CAR T cell can eradicate mixture of heterogeneous cancer cells with cocktail of FITC-ligands, immunodeficient NSG mice (Jackson laboratory) were utilized for the in vivo study. Two different cancer cell lines (e.g. MDA-MB-231(FR+) and HEK(NK1R+)) were implanted into separate flanks on the same mouse. Then, anti-FITC CAR T cell (10^7 cells) was introduced by intravenous injection when tumor volumes reached about 50-100 mm^3. In addition, either a mixture of FITC-ligands (i.e. FITC-PEG12-Folate (500 nmole/kg) and FITC-PEG11-NK1R (500 nmole/kg)), single FITC-PEG11-NK-1R (500 nmole/kg) or PBS was introduced every other day by intravenous injection. The anti-tumor efficacy of CAR T cell with FITC-ligands was analyzed by measuring tumor volume at every other day.

HEK(NK1R+) = test: Two tumors on separate flanks of the same mouse, HEK tumor; format: in vivo, mice
Description: as §3

[3] = anti-FITC CAR T cell (10^7 cells) + both FITC-PEG11-NK1R and FITC-PEG12-Folate, 500 nmole/kg each, i.v. every other day, FIG. 19C
[4] = anti-FITC CAR T cell (10^7 cells) + only FITC-PEG11-NK1R 500 nmole/kg i.v. every other day, FIG. 19B

Row | blood indices (cytokine storm) (HEK293 (NK1R+) cells [2]; HEK-NK1R model, 500 nmoles/kg, FIG. 9) | SMILES | CAR T cell cytotoxicity to tumor cells as a function of E:T ratio (KB (FR+) cells) | cytotoxicity of CAR T cells (activation) (LNCaP (PSMA+) cells) | cytotoxicity of CAR T cells (activation) (HEK293 (NK1R+) cells [1]) | tumor size (HEK293 (NK1R+) cells [2]; NSG mice, CAR T cells + conjugate 500 nmol/kg i.v. every other day, FIG. 5A) | body weight (HEK293 (NK1R+) cells [2]; NSG mice, CAR T cells + conjugate, FIG. 5B) | harvested organs, indications of cytokine release syndrome (HEK293 (NK1R+) cells [2]; after two weeks of therapy, versus control group, FIGS. 6A-B) | percentage of CAR T cells in human T cells (HEK293 (NK1R+) cells [2]; post CAR T cell injection along with conjugate, FIG. 5C) | body weight (MDA-MB-231 (FR+) cells) | MDA-MB-231 tumor volume (MDA-MB-231(FR+); [3]) | MDA-MB-231 tumor volume (MDA-MB-231(FR+); [4]) | HEK (NK1R) tumor volume (HEK(NK1R+); [3]) | HEK (NK1R) tumor volume (HEK(NK1R+); [4])
1 |  | O=C(O)CC[C@H](NC(=O)N[C@@H](CCC(=O)NCCCCCCCC(=O)N[C@@H](Cc1ccccc1)C(=O)N[C@@H](Cc1ccccc1)C(=O)NCCNC(=S)Nc1ccc(-c2c3ccc(=O)cc-3oc3cc(O)ccc23)c(C(=O)O)c1)C(=O)O)C(=O)O [FITC-DUPA] | a function of the E:T ratio | greater activation than using FITC-Folate or in the absence of a conjugate |  |  |  |  |  |  |  |  |  | 
2 | a cytokine storm had not occurred | O=C(CN1CCC[C@H](OCc2cc(C(F)(F)F)cc(C(F)(F)F)c2)[C@@H]1c1ccccc1)NCCOCCOCCOCCOCCOCCOCCOCCOCCOCCOCCOCCNC(=S)Nc1ccc(-c2c3ccc(=O)cc-3oc3cc(O)ccc23)c(C(=O)O)c1 [FITC-PEG11-NK1] |  |  | greater than activation using FITC-Folate or in the absence of a conjugate | decreased | unchanged relative to the control mouse | appeared normal in size with no indications of cytokine release syndrome | increased | unchanged during treatment | eliminated | continued growing | eliminated | eradicated
